{
  "source": "paper PMC3047498",
  "about": "(Journal of andrology, 2010)",
  "key": {"[1]": {"test_system": "endogenous testosterone production", "test": "Suppression of endogenous testosterone production by acyline", "type": "in vivo, men", "conditions": "300 µg/kg acyline; for Serum testosterone concentration 24 hours after acyline administration: before oral testosterone"}, "[2]": {"test_system": "endogenous testosterone production", "conditions": "300 µg/kg acyline, normal healthy men; ref Herbst et al, 2004; cited from earlier work"}, "[3]": {"conditions": "testosterone plus finasteride group"}},
  "data": [
    {"substance": "acyline", "values": [
      {"measurement": "Serum DHT concentration 24 hours after the acyline injection", "setting": "[1]; [3]", "result": "0.54 ± 0.32", "unit": "nmol/L"},
      {"measurement": "Serum testosterone concentration 24 hours after acyline administration", "setting": "[1]; [3]", "result": "2.3 ± 1.4", "unit": "nmol/L"},
      {"measurement": "Serum DHT concentration 24 hours after the acyline injection", "setting": "[1]; testosterone-only group", "result": "0.6 ± 0.32", "unit": "nmol/L"},
      {"measurement": "Serum testosterone concentration 24 hours after acyline administration", "setting": "[1]; testosterone-only group", "result": "2.0 ± 1.3", "unit": "nmol/L"},
      {"measurement": "Duration of testosterone suppression", "setting": "[2]", "result": 2, "unit": "weeks"},
      {"measurement": "Time to suppress testosterone to castrate levels", "setting": "[2]", "result": "≤ 24", "unit": "h"}
    ]}
  ]
}
